Entries after “also recorded” stand apart in the source; their conditions may differ. Bridge positions count the residues as written; N and C are the ends. Square brackets hold non-standard residues; d marks the D form. Peptide text beside a SMILES is read from it. * marks the point of attachment. 5TAMRA = CN(C)c1ccc2c(c1)Oc1cc(N(C)C)ccc1C21OC(=O)c2cc(C(=O)*)ccc21; 2Nal = N[C@@H](Cc1ccc2ccccc2c1)C(=O)O; Pen = CC(C)(S)[C@H](N)C(=O)O; Aib = CC(C)(N)C(=O)O
Key:
NL-IL23R = target: T1, NL-IL23R (Homo sapiens, UniProt Q5VWK5); assay: P630-TMR NanoBRET binding assay, NL-IL23R alone; conditions: for BRET ratio, Specific (Mean) / BRET ratio, Non-specific (Mean): Fig. 2c; for BRET ratio, Non-specific (Mean): with 10 μM P630; for BRET ratio with non-specific binding subtracted (Mean): Figure 2 sheet Panel f; for BRET ratio with non-specific binding subtracted (Mean) / % maximum BRET ratio / % of P630-TMR specific Bmax (Mean): NL-IL23R; for % maximum BRET ratio / % of P630-TMR specific Bmax (Mean): Figure 2 sheet Panel g, Fig. 3d
T1 construct: expressed in transfected cells; host or cells: HEK293T, transient transfection
T1 sequence (Q5VWK5 24-629): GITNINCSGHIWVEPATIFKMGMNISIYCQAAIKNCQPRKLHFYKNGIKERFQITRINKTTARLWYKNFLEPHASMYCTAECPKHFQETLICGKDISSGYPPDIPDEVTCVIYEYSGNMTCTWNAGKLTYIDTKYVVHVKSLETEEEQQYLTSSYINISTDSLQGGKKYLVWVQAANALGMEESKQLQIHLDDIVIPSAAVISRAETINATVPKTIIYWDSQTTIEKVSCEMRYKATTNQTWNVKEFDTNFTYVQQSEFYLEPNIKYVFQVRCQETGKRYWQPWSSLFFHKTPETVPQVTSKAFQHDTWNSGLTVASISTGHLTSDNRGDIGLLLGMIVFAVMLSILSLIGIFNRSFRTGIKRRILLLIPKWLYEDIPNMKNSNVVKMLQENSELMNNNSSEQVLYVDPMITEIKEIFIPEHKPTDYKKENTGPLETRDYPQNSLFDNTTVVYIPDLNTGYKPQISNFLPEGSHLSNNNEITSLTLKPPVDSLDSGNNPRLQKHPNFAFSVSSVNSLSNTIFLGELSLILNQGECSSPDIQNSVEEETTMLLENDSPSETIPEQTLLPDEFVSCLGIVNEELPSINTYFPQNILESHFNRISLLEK
Text: A standard curve was used to predict the expression level of NanoLuc labelled receptor in each experiment (Supplementary Fig. 1).
(§1) Fig. 2 Creation and characterisation of a fluorescent cyclic peptide probe for IL23R. […] Data are normally mean ± SEM from five independent experiments. Details on absolute number of data points included for each concentration are provided in the associated Source Data file. In each individual saturation experiment triplicate determinations were normally made for total binding and duplicate measurements were made for non-specific binding.
(§2) Media was removed from white 96-well microplates containing transfected cells and replaced with fluoroprobe in the presence or absence of antagonist in 50 μL Hanks Balanced Salt Solution (HBSS) with 1 mg/mL BSA (Merck). After a 1-hour incubation at 37 °C without CO2, 5 μL of HBSS containing 77 μM furimizine was added to each well (final concentration 7 μM), the plate incubated for 5-minutes and the BRET signal measured using a PheraStar FS plate reader (BMG Labtech; data acquisition software version 5.41; MARS analysis software version 3.32) with a 450 ± 30 nm and >550 nm long pass filters.
Ligand binding data were fitted with the equation:2 BRETratio=Bmax[A]/([A]+KD)+(BA+C). Where ‘Bmax’ is the maximum specific binding BRET signal, ‘[A]’ is fluorescent probe concentration, ‘B’ is the non-specific binding component’s slope and ‘C’ is the Y intercept.
(§3) Specific binding data was generated by subtracting the BRET values gained in the presence of an excess of unlabelled probe from the BRET ratios gained in the absence of unlabelled probe. Specific binding data were fit using the equation:3 Y=Bmax[B]/(B+KD) where ‘Bmax’ is the maximum specific binding signal of the curve and ‘[B]’ is the concentration of fluorescent probe.

NL-IL12Rβ1 = target: T2, NL-IL12Rβ1 (Homo sapiens, UniProt P42701); assay: P630-TMR NanoBRET binding assay, NL-IL12Rβ1 alone; conditions: for Specific binding BRET ratio (Mean): Fig. 2h, NL-IL12RB1
T2 construct: expressed in transfected cells; host or cells: HEK293T, transient transfection
Text: as §1
Finally, we utilised a NanoBiT BRET system in which a complemented luciferase with fragments bound to both receptor subunits (Fig. 3) can be used as a BRET donor to measure interactions with binary receptor complexes.
as §2, §3

C115Y mutated IL23R = target: T3, C115Y mutated IL23R (Homo sapiens, UniProt P42701+Q5VWK5, C115Y); assay: P630-TMR NanoBRET binding assay, C115Y mutant; conditions: for Mean NanoBRET binding signal (Figure 7 panel b): NL-IL23R (C115Y) + IL12Rβ1
T3 construct: expressed in transfected cells; host or cells: HEK293T, transient transfection
T3 sequence (Q5VWK5 24-629 C115Y, other chains not shown): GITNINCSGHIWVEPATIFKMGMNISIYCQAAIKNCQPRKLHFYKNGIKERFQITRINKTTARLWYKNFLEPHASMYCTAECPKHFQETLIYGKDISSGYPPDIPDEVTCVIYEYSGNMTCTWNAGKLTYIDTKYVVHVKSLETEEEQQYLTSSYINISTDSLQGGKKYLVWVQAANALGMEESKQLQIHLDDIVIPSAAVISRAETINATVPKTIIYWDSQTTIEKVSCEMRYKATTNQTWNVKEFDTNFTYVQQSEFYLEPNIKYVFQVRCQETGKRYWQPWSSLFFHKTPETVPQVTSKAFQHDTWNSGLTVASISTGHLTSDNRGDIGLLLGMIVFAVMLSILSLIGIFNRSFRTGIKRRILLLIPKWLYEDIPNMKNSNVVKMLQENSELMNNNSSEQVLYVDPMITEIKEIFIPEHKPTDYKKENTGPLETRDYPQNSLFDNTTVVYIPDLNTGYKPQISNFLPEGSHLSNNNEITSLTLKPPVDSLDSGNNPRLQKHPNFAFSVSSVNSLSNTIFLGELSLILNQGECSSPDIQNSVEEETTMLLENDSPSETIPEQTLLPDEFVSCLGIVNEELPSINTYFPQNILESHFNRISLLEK
Description: Data are mean ± SEM from five (C115Y) or four (wildtype) independent experiments conducted in duplicate or triplicate. Details on absolute number of data points included for each concentration are provided in the associated Source Data file.
as §2, with “filters. P630-TMR binding assays were normalised to a final DMSO concentration of 0.1%.” for “filters.”

[1] = NL-IL23R alone, P630-TMR 0.457247 nM
[2] = NL-IL23R alone, P630-TMR 1.37174 nM
[3] = NL-IL23R alone, P630-TMR 4.11523 nM
[4] = NL-IL23R alone, P630-TMR 12.3457 nM
[5] = NL-IL23R alone, P630-TMR 37.037 nM
[6] = NL-IL23R alone, P630-TMR 111.111 nM
[7] = NL-IL23R alone, P630-TMR 1000 nM
[8] = NL-IL23R alone, P630-TMR 3000 nM

BRET ratio, Specific (Mean) (NL-IL23R; [1]): 0.2582
BRET ratio, Specific (Mean) (NL-IL23R; [2]): 0.3055
BRET ratio, Specific (Mean) (NL-IL23R; [3]): 0.425
BRET ratio, Specific (Mean) (NL-IL23R; [4]): 0.7682
BRET ratio, Specific (Mean) (NL-IL23R; [5]): 1.473
BRET ratio, Specific (Mean) (NL-IL23R; [6]): 2.644
BRET ratio, Specific (Mean) (NL-IL23R; [7]): 4.095
BRET ratio, Specific (Mean) (NL-IL23R; [8]): 5.137
BRET ratio, Non-specific (Mean) (NL-IL23R; [1]): 0.2458
BRET ratio, Non-specific (Mean) (NL-IL23R; [2]): 0.2417
BRET ratio, Non-specific (Mean) (NL-IL23R; [3]): 0.2509
BRET ratio, Non-specific (Mean) (NL-IL23R; [4]): 0.245
BRET ratio, Non-specific (Mean) (NL-IL23R; [5]): 0.2505
BRET ratio, Non-specific (Mean) (NL-IL23R; [6]): 0.2646
BRET ratio, Non-specific (Mean) (NL-IL23R; [7]): 0.4272
BRET ratio, Non-specific (Mean) (NL-IL23R; [8]): 0.8664
BRET ratio, Non-specific (Mean) (NL-IL23R; NL-IL23R alone, P630-TMR […]): 0.2988
BRET ratio with non-specific binding subtracted (Mean) (NL-IL23R; P630-TMR 0.457247 nM): 0.01938
BRET ratio with non-specific binding subtracted (Mean) (NL-IL23R; P630-TMR 1.37174 nM): 0.8164
BRET ratio with non-specific binding subtracted (Mean) (NL-IL23R; P630-TMR 4.11523 nM): 2.963
BRET ratio with non-specific binding subtracted (Mean) (NL-IL23R; P630-TMR 12.3457 nM): 2.778
BRET ratio with non-specific binding subtracted (Mean) (NL-IL23R; P630-TMR 37.037 nM): 2.936
BRET ratio with non-specific binding subtracted (Mean) (NL-IL23R; P630-TMR 111.111 nM): 9.572
BRET ratio with non-specific binding subtracted (Mean) (NL-IL23R; P630-TMR 1000 nM): 15.1461
BRET ratio with non-specific binding subtracted (Mean) (NL-IL23R; P630-TMR 3000 nM): 19.8619
% maximum BRET ratio / % of P630-TMR specific Bmax (Mean) (NL-IL23R; P630-TMR 0.457247 nM): 0.5534%
% maximum BRET ratio / % of P630-TMR specific Bmax (Mean) (NL-IL23R; P630-TMR 1.37174 nM): 1.759%
% maximum BRET ratio / % of P630-TMR specific Bmax (Mean) (NL-IL23R; P630-TMR 4.11523 nM): 4.853%
% maximum BRET ratio / % of P630-TMR specific Bmax (Mean) (NL-IL23R; P630-TMR 12.3457 nM): 14.5245%
% maximum BRET ratio / % of P630-TMR specific Bmax (Mean) (NL-IL23R; P630-TMR 37.037 nM): 33.5672%
% maximum BRET ratio / % of P630-TMR specific Bmax (Mean) (NL-IL23R; P630-TMR 111.111 nM): 64.3078%
% maximum BRET ratio / % of P630-TMR specific Bmax (Mean) (NL-IL23R; P630-TMR 1000 nM): 100.336%
% maximum BRET ratio / % of P630-TMR specific Bmax (Mean) (NL-IL23R; P630-TMR 3000 nM): 99.0015%
Kd (NL-IL23R; NL-IL23R alone, mean ± SEM): 101 ± 4 nM
Bmax, fold higher than NL-IL23R with IL12Rβ1 (NL-IL23R; NL-IL23R in isolation): 4.04 fold
Specific binding BRET ratio (Mean) (NL-IL12Rβ1; P630-TMR 1.37174 nM): -0.001356
Specific binding BRET ratio (Mean) (NL-IL12Rβ1; P630-TMR 4.11523 nM): 0.00137
Specific binding BRET ratio (Mean) (NL-IL12Rβ1; P630-TMR 12.3457 nM): 0.0001891
Specific binding BRET ratio (Mean) (NL-IL12Rβ1; P630-TMR 37.037 nM): 0.00136
Specific binding BRET ratio (Mean) (NL-IL12Rβ1; P630-TMR 111.111 nM): 0.002083
Specific binding BRET ratio (Mean) (NL-IL12Rβ1; P630-TMR 1000 nM): 0.003104
Specific binding BRET ratio (Mean) (NL-IL12Rβ1; P630-TMR 3000 nM): 0.002137
Binding to C115Y mutant receptor (C115Y mutated IL23R): blocked specific binding
Mean NanoBRET binding signal (Figure 7 panel b) (C115Y mutated IL23R; [P630-TMR] 0.8 nM): -0.003437
Mean NanoBRET binding signal (Figure 7 panel b) (C115Y mutated IL23R; [P630-TMR] 4 nM): -0.009288
Mean NanoBRET binding signal (Figure 7 panel b) (C115Y mutated IL23R; [P630-TMR] 20 nM): -0.006407
Mean NanoBRET binding signal (Figure 7 panel b) (C115Y mutated IL23R; [P630-TMR] 100 nM): -0.004647
Mean NanoBRET binding signal (Figure 7 panel b) (C115Y mutated IL23R; [P630-TMR] 500 nM): -0.001312
Mean NanoBRET binding signal (Figure 7 panel b) (C115Y mutated IL23R; [P630-TMR] 2000 nM): 0.003535
Structure (SMILES): COc1ccc(C[C@H](NC(=O)[C@H]2NC(=O)[C@H](CCC(N)=O)NC(=O)[C@H](Cc3c[nH]c4ccccc34)NC(=O)[C@H]([C@@H](C)O)NC(=O)[C@H](CC(N)=O)NC(=O)[C@@H](NC(C)=O)C(C)(C)SSC2(C)C)C(=O)N[C@@H](Cc2ccc3ccccc3c2)C(=O)NC(C)(C)C(=O)N[C@@H](CCC(=O)O)C(=O)N[C@@H](CC(N)=O)C(=O)N[C@@H](CC(N)=O)C(=O)N[C@@H](CCCCNC(=O)c2ccc3c(c2)C(=O)OC32c3ccc(N(C)C)cc3Oc3cc(N(C)C)ccc32)C(N)=O)cc1 [P630-TMR] (Ac-[Pen]NTWQ[Pen]Y(Me)[2Nal][Aib]ENNK(5TAMRA)-NH2; disulfide 1-6)
Binding to cells expressing NL-IL12Rβ1 in isolation (NL-IL12Rβ1; absence of IL23R): no specific binding; also recorded: Did not bind
